Patent publication US11684067B2, “Generation of peroxyformic acid through polyhydric alcohol formate” (priority 2014, dated 2023)

Assays:
[1] = test system: Bacillus subitilisATCC 19659; experiment: Sporicidal activity of ester PFA versus POAA (Example 23); type: cell-based, Bacillus subtilis; settings: 20°C, dirty
Excerpt: Additional Bacillus pathogens were used to evaluate the micro efficacy of ester PFA generated according to methods of the present invention in comparison to POAA.

[2] = test system: Pseudomonas aeruginosa ATCC 15442; experiment: Bactericidal activity of ester PFA versus POAA, EN 1276, dirty conditions; type: cell-based; settings: 20°C
Excerpt: (§1) Additional Staphylococcus, Enterococcus and Pseudomonas pathogens were used to evaluate the micro efficacy of ester PFA generated according to methods of the present invention in comparison to POAA.

[3] = test system: Staphylococcus aureus ATCC 6538; experiment: as above; type: cell-based; settings: 20°C
Excerpt: as §1

[4] = test system: Enterococcus hirae ATCC 10541; experiment: as above; type: cell-based; settings: 20°C
Excerpt: as §1

[5] = Stability of PFA in use solution in the presence of soils, iodometric titration; type: physicochemical; settings: 500 ppm PFA in 500 ppm hard water with soil load, ambient; FIG. 22
Experimental: To 200 g of 500 ppm hard water containing individual soil load at the desired concentration, was added PFA stock solution to target PFA concentration of 500 ppm. The resulting solution was stored under ambient conditions, and the level of PFA was monitored by iodometric titration at the specific time point.

[6] = test system: Bacillus subitilisATCC 19659; experiment: Sporicidal activity of ester PFA versus POAA (Example 21); type: cell-based, Bacillus subtilis; settings: for Average CFU/mL / Log10 Growth / Log10 Reduction: 20°C, dirty
Excerpt: Bacillus pathogens were used to evaluate the micro efficacy of ester PFA generated according to methods of the present invention in comparison to POAA.

[7] = 300 ppm PFA pH 6.73 / 368 ppm POAA pH 6.88, 5 minutes
[8] = 300 ppm PFA pH 6.73 / 368 ppm POAA pH 6.88, 10 minutes
[9] = 400 ppm PFA pH 6.95 / 490 ppm POAA pH 6.65, 5 minutes
[10] = 400 ppm PFA pH 6.95 / 490 ppm POAA pH 6.65, 10 minutes
[11] = 20 ppm PFA pH 6.61 / 24.8 ppm POAA pH 6.73, 5 minutes
[12] = 30 ppm PFA pH 6.74 / 37.6 ppm POAA pH 6.90, 5 minutes
[13] = 50 ppm PFA pH 6.60 / 62.4 ppm POAA pH 6.98, 5 minutes
[14] = 300 ppm PFA pH 6.84 / 368 ppm POAA pH 6.73 (molar equivalent), 5 minutes
[15] = 300 ppm PFA pH 6.84 / 368 ppm POAA pH 6.73 (molar equivalent), 10 minutes
[16] = 400 ppm PFA pH 7.19 / 490 ppm POAA pH 6.78 (molar equivalent), 5 minutes
[17] = 400 ppm PFA pH 7.19 / 490 ppm POAA pH 6.78 (molar equivalent), 10 minutes

O=COO [PFA, peroxyformic acid]
Average CFU/mL [1, 7]: >3.0E+05 CFU/mL | Log10 Growth [1, 7]: >5.48 Log10 | Log10 Reduction [1, 7]: <2.26 Log10 | Average CFU/mL [1, 8]: 1.28E+05 CFU/mL | Log10 Growth [1, 8]: 5.11 Log10 | Log10 Reduction [1, 8]: 2.63 Log10 | Average CFU/mL [1, 9]: >3.0E+05 CFU/mL | Log10 Growth [1, 9]: >5.48 Log10 | Log10 Reduction [1, 9]: <2.26 Log10 | Average CFU/mL [1, 10]: 7.50E+04 CFU/mL | Log10 Growth [1, 10]: 4.88 Log10 | Log10 Reduction [1, 10]: 2.86 Log10 | Average CFU/mL [2, 11]: <140 CFU/mL | Log10 Growth [2, 11]: <2.15 Log10 | Average CFU/mL [2, 12]: <140 CFU/mL | Log10 Growth [2, 12]: <2.15 Log10 | Average CFU/mL [2, 13]: <140 CFU/mL | Log10 Growth [2, 13]: <2.15 Log10 | Average CFU/mL [3, 11]: <140 CFU/mL | Log10 Growth [3, 11]: <2.15 Log10 | Average CFU/mL [3, 12]: <140 CFU/mL | Log10 Growth [3, 12]: <2.15 Log10 | Average CFU/mL [3, 13]: <140 CFU/mL | Log10 Growth [3, 13]: <2.15 Log10 | Average CFU/mL [4, 11]: 6.30E + 03 CFU/mL | Log10 Growth [4, 11]: 3.80 Log10 | Average CFU/mL [4, 12]: 2.15E + 02 CFU/mL | Log10 Growth [4, 12]: 2.33 Log10 | Average CFU/mL [4, 13]: <140 CFU/mL | Log10 Growth [4, 13]: <2.15 Log10 | impact of soils on the stability of PFA [5]: no impact | reduction in B. subtillis spores compared with POAA ([6]; 5 and 10 minutes, lower concentrations than POAA, FIG. 17): increased reduction | Average CFU/mL [6, 14]: 3.25E+03 CFU/mL | Log10 Growth [6, 14]: 3.51 Log10 | Log10 Reduction [6, 14]: 2.28 Log10 | Average CFU/mL [6, 15]: 4.50E+01 CFU/mL | Log10 Growth [6, 15]: 1.65 Log10 | Log10 Reduction [6, 15]: 4.14 Log10 | Average CFU/mL [6, 16]: 3.45E+03 CFU/mL | Log10 Growth [6, 16]: 3.54 Log10 | Log10 Reduction [6, 16]: 2.26 Log10 | Average CFU/mL [6, 17]: 1.30E+03 CFU/mL | Log10 Growth [6, 17]: 3.11 Log10 | Log10 Reduction [6, 17]: 2.68 Log10
